In PubChem BioAssay (NCI):
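96-well plates; 48 h exposure; 5 concentrations. Endpoints by linear interpolation between flanking doses. Not reached: highest tested concentration assigned. TGI: concentration producing complete growth inhibition.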

Key:
Test in all cases: NCI tumour cell line growth inhibition, 48 h
A498 renal = system: A498 renal
ACHN renal = system: ACHN renal
CCRF-CEM leukemia = system: CCRF-CEM leukemia
IGROV1 ovarian = system: IGROV1 ovarian
MOLT-4 leukemia = system: MOLT-4 leukemia
NCI-H460 lung = system: NCI-H460 lung
RPMI-8226 leukemia = system: RPMI-8226 leukemia
SF-539 CNS = system: SF-539 CNS
UACC-257 melanoma = system: UACC-257 melanoma

Nn1c(Cc2ccc(Cl)cc2)n[nH]c1=O
TGI (A498 renal): > 100 µM | TGI (ACHN renal): > 100 µM | TGI (CCRF-CEM leukemia): > 100 µM | TGI (IGROV1 ovarian): > 100 µM | TGI (MOLT-4 leukemia): > 100 µM | TGI (NCI-H460 lung): > 100 µM | TGI (RPMI-8226 leukemia): > 100 µM | TGI (SF-539 CNS): > 100 µM | TGI (UACC-257 melanoma): > 100 µM

CCNC(=S)N/N=C/c1cc(OC)ccc1O
TGI (ACHN renal): > 100 µM | TGI (CCRF-CEM leukemia): > 100 µM | TGI (IGROV1 ovarian): > 100 µM | TGI (MOLT-4 leukemia): > 100 µM | TGI (NCI-H460 lung): > 100 µM | TGI (SF-539 CNS): > 100 µM | TGI (UACC-257 melanoma): > 100 µM

CC(C)(C)c1cc(C(O)(C(=O)O)C(=O)O)cc(C(C)(C)C)c1O
TGI (A498 renal): > 100 µM | TGI (ACHN renal): > 100 µM | TGI (CCRF-CEM leukemia): > 100 µM | TGI (IGROV1 ovarian): > 100 µM | TGI (MOLT-4 leukemia): > 100 µM | TGI (RPMI-8226 leukemia): > 100 µM | TGI (SF-539 CNS): > 100 µM | TGI (UACC-257 melanoma): > 100 µM

CC(=O)Nc1ccc2c(C(=O)O)c(C)c(=O)[nH]c2n1
TGI (ACHN renal): > 100 µM | TGI (IGROV1 ovarian): > 100 µM | TGI (MOLT-4 leukemia): > 100 µM | TGI (NCI-H460 lung): > 100 µM | TGI (RPMI-8226 leukemia): > 100 µM | TGI (SF-539 CNS): > 100 µM | TGI (UACC-257 melanoma): > 100 µM

CCCC(Sc1nc(N)nc2nc[nH]c12)C(=O)O (configuration not stated)
TGI (A498 renal): > 100 µM | TGI (ACHN renal): > 100 µM | TGI (CCRF-CEM leukemia): > 100 µM | TGI (IGROV1 ovarian): > 100 µM | TGI (MOLT-4 leukemia): > 100 µM | TGI (NCI-H460 lung): > 100 µM | TGI (RPMI-8226 leukemia): > 100 µM | TGI (UACC-257 melanoma): > 100 µM

Cc1c(-c2ccccc2)c(C#N)c2nnn(-c3ccccc3)c(=O)n12
TGI (A498 renal): > 100 µM | TGI (ACHN renal): > 100 µM | TGI (CCRF-CEM leukemia): > 100 µM | TGI (IGROV1 ovarian): > 100 µM | TGI (NCI-H460 lung): > 100 µM | TGI (RPMI-8226 leukemia): > 100 µM | TGI (SF-539 CNS): > 100 µM | TGI (UACC-257 melanoma): > 100 µM

COc1cc(C2c3cc4c(cc3C(O)C3CCC(=O)N23)OCO4)cc(OC)c1OC (configuration not stated)
TGI (A498 renal): > 100 µM | TGI (ACHN renal): > 100 µM | TGI (CCRF-CEM leukemia): > 100 µM | TGI (IGROV1 ovarian): > 100 µM | TGI (MOLT-4 leukemia): > 100 µM | TGI (NCI-H460 lung): > 100 µM | TGI (RPMI-8226 leukemia): > 100 µM | TGI (UACC-257 melanoma): > 100 µM

COc1ccc2c(c1)OCC1(O)Cc3ccccc3OC21 (configuration not stated)
TGI (A498 renal): > 100 µM | TGI (ACHN renal): > 100 µM | TGI (CCRF-CEM leukemia): > 100 µM | TGI (IGROV1 ovarian): > 100 µM | TGI (MOLT-4 leukemia): > 100 µM | TGI (RPMI-8226 leukemia): > 100 µM | TGI (SF-539 CNS): > 100 µM | TGI (UACC-257 melanoma): > 100 µM

Cc1ccc(S(=O)(=O)NC(=O)NC(Cc2c[nH]c3ccccc23)C(=O)O)cc1 (configuration not stated)
TGI (CCRF-CEM leukemia): > 100 µM | TGI (IGROV1 ovarian): > 100 µM | TGI (MOLT-4 leukemia): > 100 µM | TGI (NCI-H460 lung): > 100 µM | TGI (RPMI-8226 leukemia): > 100 µM | TGI (SF-539 CNS): > 100 µM | TGI (UACC-257 melanoma): > 100 µM

CCCC1NC(C#N)(C#N)C(CCC)NC1(C#N)C#N (configuration not stated)
TGI (A498 renal): > 96.4 µM | TGI (ACHN renal): > 100 µM | TGI (CCRF-CEM leukemia): 17.8 µM | TGI (IGROV1 ovarian): > 62.2 µM | TGI (MOLT-4 leukemia): 1.99 µM | TGI (NCI-H460 lung): > 100 µM | TGI (RPMI-8226 leukemia): 0.943 µM | TGI (UACC-257 melanoma): > 100 µM

CC1(C)CCC[C@]2(C)[C@@H]1CC[C@@]13O[C@@H]1C1=C(CO)C(=O)O[C@]14O[C@@H]4[C@@H]23
TGI (A498 renal): 32.9 µM | TGI (ACHN renal): 30.2 µM | TGI (IGROV1 ovarian): 27.3 µM | TGI (MOLT-4 leukemia): > 100 µM | TGI (NCI-H460 lung): 41 µM | TGI (RPMI-8226 leukemia): > 100 µM | TGI (SF-539 CNS): 37.6 µM | TGI (UACC-257 melanoma): 35.8 µM

CC(C)CC(=O)NC(Nc1ccc(S(=O)(=O)Nc2ncccn2)cc1)(C(F)(F)F)C(F)(F)F
TGI (ACHN renal): > 100 µM | TGI (CCRF-CEM leukemia): > 100 µM | TGI (IGROV1 ovarian): > 100 µM | TGI (MOLT-4 leukemia): > 100 µM | TGI (NCI-H460 lung): > 100 µM | TGI (RPMI-8226 leukemia): > 100 µM | TGI (SF-539 CNS): > 100 µM | TGI (UACC-257 melanoma): > 100 µM

O=C1COC(c2ccccc2O)=NN1CCCN1CCCC1
TGI (A498 renal): > 100 µM | TGI (ACHN renal): > 100 µM | TGI (IGROV1 ovarian): > 100 µM | TGI (MOLT-4 leukemia): > 100 µM | TGI (NCI-H460 lung): > 100 µM | TGI (RPMI-8226 leukemia): > 100 µM | TGI (SF-539 CNS): > 100 µM | TGI (UACC-257 melanoma): > 100 µM
